Legend:
Cholinesterase = Cholinesterase (Equus caballus, UniProt P81908); test: Inhibition of equine serum BChE; assay type: cell-free
Histone deacetylase = assay type: cell-based, Homo sapiens; settings: hela
Description: Inhibition of HDAC in human HeLa cell extracts

Acetylcholinesterase = Acetylcholinesterase (Electrophorus electricus, UniProt O42275); test: Inhibition of electric eel AChE
[1] = Selectivity index, ratio of IC50 for equine serum BChE to IC50 for electric eel AChE

Chain of Cholinesterase (P81908 whole entry): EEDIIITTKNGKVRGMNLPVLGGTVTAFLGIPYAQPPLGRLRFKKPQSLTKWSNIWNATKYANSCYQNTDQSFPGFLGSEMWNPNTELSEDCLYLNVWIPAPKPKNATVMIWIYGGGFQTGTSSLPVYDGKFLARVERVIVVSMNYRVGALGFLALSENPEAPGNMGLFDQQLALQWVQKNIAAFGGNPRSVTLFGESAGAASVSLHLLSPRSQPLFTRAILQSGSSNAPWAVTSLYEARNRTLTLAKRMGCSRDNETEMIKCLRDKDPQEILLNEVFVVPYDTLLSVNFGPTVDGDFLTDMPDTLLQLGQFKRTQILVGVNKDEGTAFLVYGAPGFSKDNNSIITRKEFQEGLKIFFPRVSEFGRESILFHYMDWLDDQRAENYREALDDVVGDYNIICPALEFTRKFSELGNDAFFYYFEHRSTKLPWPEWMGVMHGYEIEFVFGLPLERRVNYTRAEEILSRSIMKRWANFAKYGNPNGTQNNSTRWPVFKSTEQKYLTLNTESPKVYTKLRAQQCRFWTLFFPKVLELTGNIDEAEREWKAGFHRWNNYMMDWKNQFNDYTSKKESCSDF
Chain of Acetylcholinesterase (O42275 whole entry): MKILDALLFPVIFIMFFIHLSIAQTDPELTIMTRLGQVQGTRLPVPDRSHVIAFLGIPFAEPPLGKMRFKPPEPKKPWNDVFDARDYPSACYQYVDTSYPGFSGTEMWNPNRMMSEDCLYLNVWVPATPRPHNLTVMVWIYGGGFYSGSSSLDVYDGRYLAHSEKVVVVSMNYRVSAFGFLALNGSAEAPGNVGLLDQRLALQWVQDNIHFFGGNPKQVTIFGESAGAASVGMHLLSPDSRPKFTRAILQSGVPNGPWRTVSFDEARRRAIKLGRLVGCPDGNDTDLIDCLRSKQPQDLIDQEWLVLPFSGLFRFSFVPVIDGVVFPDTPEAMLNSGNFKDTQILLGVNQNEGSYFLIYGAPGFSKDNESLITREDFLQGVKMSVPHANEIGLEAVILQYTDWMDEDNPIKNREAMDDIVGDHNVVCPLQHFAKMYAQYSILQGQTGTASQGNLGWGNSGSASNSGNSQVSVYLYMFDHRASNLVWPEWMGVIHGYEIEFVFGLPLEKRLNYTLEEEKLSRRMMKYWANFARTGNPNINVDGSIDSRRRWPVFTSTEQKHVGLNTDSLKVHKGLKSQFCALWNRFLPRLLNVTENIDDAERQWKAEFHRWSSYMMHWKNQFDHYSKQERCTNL

With `Nc1ccccc1NC(=O)/C=C/c1ccc(C(=O)NCC2CCN(Cc3ccccc3)CC2)cc1` the IC50 (Cholinesterase) was “Not Active”, the IC50 (Histone deacetylase) was 0.18 µM and the IC50 (Acetylcholinesterase; read-out: IC50) was 13.8 µM.

For `COc1cc(/C=C/C(=O)NO)ccc1C(=O)NCC1CCN(Cc2ccccc2)CC1`, the IC50 (Cholinesterase; read-out: IC50) was 25.2 µM, the IC50 (Histone deacetylase) was 0.02 µM and the IC50 (Acetylcholinesterase; read-out: IC50) was 24.6 µM.

With `O=C(NO)c1ccc(C(=O)NCC2CCN(Cc3ccccc3)CC2)cc1` the IC50 (Cholinesterase; read-out: IC50) was 3.28 µM, the IC50 (Histone deacetylase) was 0.14 µM and the IC50 (Acetylcholinesterase; read-out: IC50) was 39.7 µM.

Work on `COc1cc(CCC(=O)Nc2ccccc2N)ccc1C(=O)NCC1CCN(Cc2ccccc2)CC1` yielded an IC50 (Cholinesterase; read-out: IC50) of 10.6 µM, an IC50 (Histone deacetylase) greater than 10 µM and an IC50 (Acetylcholinesterase; read-out: IC50) of 31.3 µM.

For `Nc1ccccc1NC(=O)c1cccc(C(=O)NCC2CCN(Cc3ccccc3)CC2)c1`, the IC50 (Cholinesterase; read-out: IC50) was 7.96 µM, the IC50 (Histone deacetylase) was 2.13 µM and the IC50 (Acetylcholinesterase; read-out: IC50) was 32.6 µM.

With `O=C(NO)c1ccc(CNCC2CCN(Cc3ccccc3)CC2)cc1` the IC50 (Cholinesterase; read-out: IC50) was 13.2 µM, the IC50 (Histone deacetylase) was 1.42 µM and the IC50 (Acetylcholinesterase; read-out: IC50) was 6.03 µM.

Work on `COc1cc(/C=C/C(=O)Nc2ccccc2N)ccc1C(=O)NCC1CCN(Cc2ccccc2)CC1` yielded an IC50 (Cholinesterase; read-out: IC50) of 6.56 µM, an IC50 (Histone deacetylase) of 1.25 µM and an IC50 (Acetylcholinesterase; read-out: IC50) of 8.89 µM.

With `O=C(/C=C/c1cccc(C(=O)NCC2CCN(Cc3ccccc3)CC2)c1)NO` the IC50 (Cholinesterase) was “Not Active”, the IC50 (Histone deacetylase) was 0.067 µM and the IC50 (Acetylcholinesterase; read-out: IC50) was 14.6 µM.

In the case of `Nc1ccccc1NC(=O)c1cccc(S(=O)(=O)NCC2CCN(Cc3ccccc3)CC2)c1`, the IC50 (Cholinesterase; read-out: IC50) is reported as 5.23 µM, the IC50 (Histone deacetylase) is reported as 1.28 µM and the IC50 (Acetylcholinesterase; read-out: IC50) is reported as 7.41 µM.

Work on `Nc1ccccc1NC(=O)CCCCCCCC(=O)NCC1CCN(Cc2ccccc2)CC1` yielded an IC50 (Cholinesterase; read-out: IC50) of 13.8 µM, an IC50 (Histone deacetylase) of 1.14 µM and an IC50 (Acetylcholinesterase; read-out: IC50) of 11.5 µM.

For `Nc1ccccc1NC(=O)c1ccc(CNCC2CCN(Cc3ccccc3)CC2)cc1`, the IC50 (Cholinesterase; read-out: IC50) was 12.6 µM, the IC50 (Histone deacetylase) was greater than 10 µM and the IC50 (Acetylcholinesterase; read-out: IC50) was 9.84 µM.

With `Nc1ccccc1NC(=O)CCCCCC(=O)NCC1CCN(Cc2ccccc2)CC1` the IC50 (Cholinesterase; read-out: IC50) was 6.19 µM, the IC50 (Histone deacetylase) was greater than 10 µM and the IC50 (Acetylcholinesterase; read-out: IC50) was 7.06 µM.

For `O=C(CCCCCC(=O)NCC1CCN(Cc2ccccc2)CC1)NO`, the IC50 (Cholinesterase) was “Not Active”, the IC50 (Histone deacetylase) was greater than 10 µM and the IC50 (Acetylcholinesterase; read-out: IC50) was 32.8 µM.

With `Nc1ccccc1NC(=O)CCCCCCC(=O)NCC1CCN(Cc2ccccc2)CC1` the IC50 (Cholinesterase) was “Not Active”, the IC50 (Histone deacetylase) was greater than 10 µM and the IC50 (Acetylcholinesterase) was “Not Active”.

For `O=C(CCCCCCC(=O)NCC1CCN(Cc2ccccc2)CC1)NO`, the IC50 (Cholinesterase; read-out: IC50) was 1.62 µM, the IC50 (Histone deacetylase) was 0.59 µM and the IC50 (Acetylcholinesterase) was “Not Active”.

In the case of `O=C(/C=C/c1ccc(C(=O)NCC2CCN(Cc3ccccc3)CC2)cc1)NO`, the Ratio IC50 [1] is reported as greater than 10, the IC50 (Cholinesterase) is reported as “Not Active” and the IC50 (Histone deacetylase) is reported as 0.28 µM. For the same molecule, the IC50 (Acetylcholinesterase; read-out: IC50) was 8.18 µM.

With `O=C(CCc1cccc(C(=O)NCC2CCN(Cc3ccccc3)CC2)c1)NO` the IC50 (Cholinesterase) was “Not Active”, the IC50 (Histone deacetylase) was 0.47 µM and the IC50 (Acetylcholinesterase) was “Not Active”.

For `O=C(/C=C/c1ccc(C(=O)NO)cc1)NCC1CCN(Cc2ccccc2)CC1`, the Ratio IC50 [1] was greater than 10, the IC50 (Cholinesterase) was “Not Active” and the IC50 (Histone deacetylase) was 2.1 µM. It also gave an IC50 (Acetylcholinesterase; read-out: IC50) of 4.07 µM.

Molecule `Nc1ccccc1NC(=O)c1ccc(/C=C/C(=O)NCC2CCN(Cc3ccccc3)CC2)cc1` has a Ratio IC50 [1] greater than 10, an IC50 (Cholinesterase; read-out: IC50) of 15.6 µM and an IC50 (Histone deacetylase) greater than 10 µM. For the same molecule, the IC50 (Acetylcholinesterase; read-out: IC50) was 2.12 µM.

In the case of `Nc1ccccc1NC(=O)c1ccc(S(=O)(=O)NCC2CCN(Cc3ccccc3)CC2)cc1`, the Ratio IC50 [1] is reported as greater than 102, the IC50 (Cholinesterase) is reported as “Not Active” and the IC50 (Histone deacetylase) is reported as greater than 10 µM. It also gave an IC50 (Acetylcholinesterase; read-out: IC50) of 0.49 µM.

For `O=C(CCCCCCCC(=O)NCC1CCN(Cc2ccccc2)CC1)NO`, the IC50 (Cholinesterase; read-out: IC50) was 13.7 µM, the IC50 (Histone deacetylase) was 0.43 µM and the IC50 (Acetylcholinesterase; read-out: IC50) was 26.2 µM.

`Nc1ccccc1NC(=O)CCc1cccc(C(=O)NCC2CCN(Cc3ccccc3)CC2)c1` gave an IC50 (Cholinesterase; read-out: IC50) of 9.49 µM, an IC50 (Histone deacetylase) of 1.2 µM and an IC50 (Acetylcholinesterase; read-out: IC50) of 9.97 µM.

With `O=C(CCc1ccc(C(=O)NCC2CCN(Cc3ccccc3)CC2)cc1)NO` the IC50 (Cholinesterase) was “Not Active”, the IC50 (Histone deacetylase) was 1 µM and the IC50 (Acetylcholinesterase) was “Not Active”.

For `O=C(NO)c1cccc(S(=O)(=O)NCC2CCN(Cc3ccccc3)CC2)c1`, the IC50 (Cholinesterase) was “Not Active”, the IC50 (Histone deacetylase) was 6.8 µM and the IC50 (Acetylcholinesterase; read-out: IC50) was 19.2 µM.

For `Nc1ccccc1NC(=O)/C=C/c1cccc(C(=O)NCC2CCN(Cc3ccccc3)CC2)c1`, the IC50 (Cholinesterase) was “Not Active”, the IC50 (Histone deacetylase) was 1.62 µM and the IC50 (Acetylcholinesterase) was “Not Active”.

For `O=C(CCc1ccc(C(=O)NO)cc1)NCC1CCN(Cc2ccccc2)CC1`, the IC50 (Cholinesterase) was “Not Active”, the IC50 (Histone deacetylase) was greater than 10 µM and the IC50 (Acetylcholinesterase) was “Not Active”.

In the case of `COc1cc(CCC(=O)NO)ccc1C(=O)NCC1CCN(Cc2ccccc2)CC1`, the Ratio IC50 [1] is reported as greater than 10, the IC50 (Cholinesterase) is reported as “Not Active” and the IC50 (Histone deacetylase) is reported as 0.17 µM. The IC50 (Acetylcholinesterase; read-out: IC50) was 6.89 µM.

In the case of `O=C(NO)c1cccc(C(=O)NCC2CCN(Cc3ccccc3)CC2)c1`, the IC50 (Cholinesterase) is reported as “Not Active”, the IC50 (Histone deacetylase) is reported as 0.8 µM and the IC50 (Acetylcholinesterase) is reported as “Not Active”.

With `Nc1ccccc1NC(=O)CCc1ccc(C(=O)NCC2CCN(Cc3ccccc3)CC2)cc1` the IC50 (Cholinesterase; read-out: IC50) was 13.4 µM, the IC50 (Histone deacetylase) was 0.46 µM and the IC50 (Acetylcholinesterase; read-out: IC50) was 9.13 µM.

With `Nc1ccccc1NC(=O)c1ccc(CCC(=O)NCC2CCN(Cc3ccccc3)CC2)cc1` the IC50 (Cholinesterase) was “Not Active”, the IC50 (Histone deacetylase) was greater than 10 µM and the IC50 (Acetylcholinesterase; read-out: IC50) was 12.4 µM.

With `O=C(NO)c1ccc(S(=O)(=O)NCC2CCN(Cc3ccccc3)CC2)cc1` the Ratio IC50 [1] was greater than 10, the IC50 (Cholinesterase) was “Not Active” and the IC50 (Histone deacetylase) was 0.45 µM. The IC50 (Acetylcholinesterase; read-out: IC50) was 3.22 µM.

From ChEMBL document CHEMBL5223174, “Design, synthesis, and biological evaluation of novel N-Benzyl piperidine derivatives as potent HDAC/AChE inhibitors for Alzheimer's disease” (Bioorg Med Chem, 2023)
